Holding throughout (type): in vitro ADME
A short description of data set [1]: Plasma Stability Assay (Example A3), rat plasma. The conditions noted are these: prodrug remaining, 10 μM, 37° C. The source says: (§1) The data is represented in the table below.
Data set [2] is described as follows: Metabolic Stability in Human Hepatocytes. Conditions: cryopreserved human hepatocytes, 37° C. As for the experimental part: A 2.5 uL aliquot of 100 μM test compound was incubated with 247.5 uL of cryopreserved hepatocytes suspended in serum-free incubation medium at 5×10^5 viable cells/mL. The mixture was incubated at 37° C. and shaken at 500 rpm for the designated time points (0.5, 15, 30, 60, 90, or 120 min). At each time point, 25 μL aliquot of incubation mixture was transferred to 125 μL of cold acetonitrile containing internal standard, followed by centrifugation for 30 min at 3,220 g. 100 μL of supernatant was mixed with 100 μL of distilled water for analysis by LC-MS/MS. Peak areas were determined from extracted ion chromatograms and in vitro half-life (t1/2) was determined from the concentration vs time regression slope, in vitro t1/2=0.693/k. Conversion of the in vitro t1/2 (in min) into the in vitro intrinsic clearance (in vitro CLint, in μL/min/10^6 cells) is done using: in vitro CLint=kV/N.

Data set [3] in a line: Plasma Stability Assay (Example A3), human plasma. The conditions noted are these: prodrug remaining, 10 μM, 37° C.
Description: as §1

From patent US20240408119A1, “DELIVERY OF THERAPEUTIC ALKALOID COMPOUNDS” (priority 2022, published 2024) come the findings set out here.

A word on the half-life: it is the time in which the quantity being followed falls by half. A low value points to fast loss. By hepatocyte CLint is commonly meant a measure of how fast metabolising enzymes remove a compound, apart from limits set by blood flow. Take `COc1ccc([C@@]23CCC(OP4(=O)OC(C)CC(C)O4)=C[C@@H]2N(C)CC3)cc1OC` (stereo partly drawn) [Compound 423, 2-(((3aS,7aS)-3a-(3,4-dimethoxyphenyl)-1-methyl-2,3,3a, 4,5,7a-hexahydro-1H-indol-6-yl)oxy)-4,6-dimethyl-1,3,2-dioxaphosphinane 2-oxide]: the “Rat Plasma Prodrug (%)” value is reported as 100.00% in data set [1] (0 min); over 99% in data set [1] (10 min); over 99% in data set [1] (30 min); 91.05% in data set [1] (60 min); 83.29% in data set [1] (120 min); 67.32% in data set [1] (240 min). For the same compound, the half-life at 1 μM in data set [2] was 0.95 h. Moreover, the hepatocyte CLint at 1 μM in data set [2] was determined as 24.4 µL/min/1e6 cells. Moreover, the “Human Plasma Prodrug (%)” value in data set [3] (0 min) is given as 100.00%; in data set [3] (10 min) it was over 99%; in data set [3] (30 min), over 99%; in data set [3] (60 min) it was 98.77%; in data set [3] (120 min) it was 97.80%; in data set [3] (240 min), 89.67%.

In the case of `COc1ccc([C@@]23CCC(OP4(=O)OCCCO4)=C[C@@H]2N(C)CC3)cc1OC` [Compound 422, 2-(((3aS,7aS)-3a-(3,4-dimethoxyphenyl)-1-methyl-2,3,3a, 4,5,7a-hexahydro-1H-indol-6-yl)oxy)-1,3,2-dioxaphosphinane 2-oxide], the “Rat Plasma Prodrug (%)” value in data set [1] (0 min) is recorded as 100.0%; in data set [1] (10 min), over 99%; in data set [1] (30 min), over 99%; in data set [1] (60 min), over 99%; in data set [1] (120 min) it was 91.0%; in data set [1] (240 min), 76.8%. Further, in data set [2], the half-life at 1 μM was 6.1 h. The hepatocyte CLint at 1 μM in data set [2] stood at 3.9 µL/min/1e6 cells. The “Human Plasma Prodrug (%)” value came to 100.0% in data set [3] (0 min); 89.4% in data set [3] (10 min); 73.1% in data set [3] (30 min); 62.4% in data set [3] (60 min); 39.2% in data set [3] (120 min); 19.6% in data set [3] (240 min).
